Assays:
BT-20 = assay: 5-day cell proliferation assay (CTG); assay type: cell-based; settings: Homo sapiens, 120 h, BT-20, Breast
Method: (§1) For screening using a proliferation assay, the cells used were cultured at 37° C. with 5% CO2, except for those being cultured with L-15 medium (37° C. and 100% air, TABLE 7). Compound stock solutions (10 mM) were made in sterile water, aliquoted and stored at room temperature. Cisplatin was used as reference Control. Plastic consumables, culture media and supplements were purchased from well-known suppliers (TABLE 8).
(§2) Cell seeding (day −1). When necessary, cells were trypsinized using standard methods (see e.g. example 01). Cells were collected and resuspended in 5-6 mL of appropriate culture medium, counted and diluted to the needed density. Fifty-four μl (microliter) cells were seeded per well in a 384-well plate. Extra four wells per cell line were seeded on an additional plate for Day 0 reading (baseline cell density). Cells were incubated at 37° C. overnight.
(§3) Compound treatment and Day 0 reading (day 0). Tenfold final concentration of test compounds and Cisplatin were prepared in cell culture media (work dilutions). Six μl of work dilution solutions were dispensed into the corresponding wells in 384-well plates to bring the total volume up to 60 μl. Conditions were tested in triplicate. The plates were then incubated at 37° C. for five days. For the day 0 reading, 30 μl of CTG and 6 μl cell culture medium were added to the day 0 plates, contents mixed for 2 min on a plate shaker, and the plates incubated for 10 min at room temperature in the dark. Luminescence was recorded on an EnVision Multi Label Reader (2104-0010A, PerkinElmer, USA).
(§4) Endpoint CTG reading (day 5). The amounts of cells in the plates was determined by endpoint CTG-test. Thirty μl of CTG were added to the 60 μl of cell culture per well, contents mixed for 2 min on a plate shaker, and the plates incubated for 10 min at room temperature in the dark. Luminescence was recorded on an EnVision Multi Label Reader.
(§5) Data analysis. Fifty percent growth inhibition concentrations (GI50) were calculated based on percentage of control data (untreated cells) from each cell line (TABLE 5 (this example) and TABLE 6). Curves were fitted using a nonlinear regression model with a sigmoidal dose response. Examples of obtained curves are depicted in FIG. 2A-2F.

DU145 = assay: 5-day cell proliferation assay (CTG); assay type: cell-based; settings: Homo sapiens, DU-145, 120 h, DU145, Prostate
Method: as §1, §2, §3, §4, §5

HL-60 = assay: 5-day cell proliferation assay (CTG); assay type: cell-based; settings: Homo sapiens, 120 h, HL-60, Leukemia
Method: as §1, §2, §3, §4, §5

IM95m = assay: 5-day cell proliferation assay (CTG); assay type: cell-based; settings: Homo sapiens, 120 h, Stomach/Gastric
Method: as §1, §2, §3, §4, §5

SK-BR-3 = assay: 5-day cell proliferation assay (CTG); assay type: cell-based; settings: Homo sapiens, 120 h, SK-BR-3, Breast
Method: as §1, §2, §3, §4, §5

[1] = system: patient-derived castration-resistant prostate tumor cells (model #PR6511); assay: Castration resistant prostate cancer patient-derived xenograft (CRPC PDX); assay type: in vivo, mouse; settings: for CR (complete regression) = number of mice / PR (partial regression) = number of mice / TFS (Tumor Free Survival) = number of complete regressions recorded up to Group Day End: groups of eight mice
Method: NSG NOD.Cg-PrkdcscidIj2rgtm1Wjl/SzJ mice (6-8 weeks of age) were injected with patient-derived castration-resistant prostate tumor cells (model #PR6511, Crown Bioscience UK Ltd Hillcrest, Osgathorpe Leicestershire, UK). The cells were inoculated subcutaneously into the left flank of 40 male NSG mice. When tumors reached a mean volume of approximately 100 mm^3 (i.e. 100 mm^3+/−54 mm^3, FIG. 3), mice were randomly assigned to five treatment groups of each eight mice (TABLE 9). Body weights were measured three times weekly prior to the initiation of dosing and daily thereafter. Tumor burden was assessed by caliper measurement three times weekly. Dosing breaks were applied when tolerability issues arose (body weight loss>10). Upon completion of the scheduled dosing phase at day 57, tumor outgrowth was monitored for groups 3, 4 and […] up to study day 77. Groups 1 and 2 were terminated on study day 57. Results of the experiment are shown in TABLES 10 and 11; and FIGS. 3 and 4. The experiment was performed in the Crown Bioscience Ltd. testing facility (Crown Bioscience UK Ltd Hillcrest, Dodgeford Lane, Osgathorpe Leicestershire LE12 9TE, UK).

[2] = system: MKN45 human gastric adenocarcinoma cells; assay: Cell-derived xenograft mouse model for gastric cancer (MKN45 CDX); assay type: in vivo; settings: p.o.; for Tumor Size day 29: MKN45 CDX, female BALB/c nude mice, Mean ± SEM; for T/C: day 29, tumor-to-control ratio (volume/volume)
Method: Female BALB/c nude mice (8-9 weeks of age) were injected with MKN45 human gastric adenocarcinoma cells. The cells were inoculated subcutaneously into the left flank of 48 mice. When tumors reached a mean volume of approximately 103 mm^3, mice were randomly assigned to eight treatment groups of each six mice (TABLE 16). Body weights were measured three times weekly prior to the initiation of dosing and daily thereafter. Tumor burden was assessed by caliper measurement twice weekly. Dosing breaks were applied when tolerability issues arose (body weight loss>10%). The study was terminated four weeks post first dosing. The experiment was performed in the Crown Bioscience Ltd. (Beijing) testing facility (Ground Floor, Light Muller Building, Changping Sector of Zhongguancun Scientific Park, No. 21 Huoju Road, Changping District, Beijing, CHN).

[3] = system: prostate-specific antigen (PSA); assay: Serum PSA (ELISA) in the castration-resistant prostate cancer patient-derived xenograft mouse model; assay type: in vivo; settings: five mice with detectable tumors; daily 10 and 3 mg/kg (two mice) or 6 mg/kg (three mice); blood 3 h after the last dose
Method: Mice from groups 1, 3 and 4 of the CPRC prostate patient-derived xenograft model (TABLE 9, EXAMPLE 322) were used to analyze serum PSA at the end of the experiment. […] PSA was detected by ELISA (Human Kallikrein 3/PSA Quantikine ELISA Kit, R&D Systems, Minneapolis, MN, USA) according to manufacturer's instructions. Minimal relative expected PSA-levels were calculated based on minimal PSA/tumor size ratio of vehicle-treated mice.

[4] = system: Vascular Endothelial Growth Factor A (VEGF); assay: Tumor VEGF protein (ELISA) in MKN45 gastric cancer cell-derived xenograft; assay type: in vivo, mouse; settings: approximately 3 weeks of treatment with 3 mg/kg or 6 mg/kg, effect less evident than in HCT-116
Method: Mice from groups 1, 2, 4 and 5 of the HCT-116 colorectal cancer model (TABLE 12, EXAMPLE 324) and MKN45 gastric cancer model (TABLE 14, EXAMPLE 325) were used to analyze tumor Vascular Endothelial Growth Factor A (VEGF) protein expression at the end of the experiment. Tumors homogenates were prepared using a 2× Lysis Buffer (RayBiotech Life, Norcross, GA, USA) according to manufacturer's instructions. VEGF was quantified in 50 micrograms tumor by ELISA (Human VEGF Quantikine ELISA Kit, R&D Systems) according to manufacturer's instructions.

[5] = 6 mg/kg p.o. QD, n.s. = not significant
[6] = p.o. QD, 10 mg/kg, 3 mg/kg from day 51 on

Structure (SMILES) | TWO-WAY ANOVA p (tumor size at the end of the study) vs. Compound 258 10 mg/kg [1, 5] | TWO-WAY ANOVA p (tumor size at the end of the study) vs. Enzalutamide ([1]; 6 mg/kg, p.o. QD) | TWO-WAY ANOVA p (tumor size at the end of the study) vs. Vehicle ([1]; 6 mg/kg, p.o. QD) | CR (complete regression) = number of mice ([1]; p.o. QD, 6 mg/kg) | PR (partial regression) = number of mice ([1]; p.o. QD, 6 mg/kg) | TFS (Tumor Free Survival) = number of complete regressions recorded up to Group Day End ([1]; p.o. QD, 6 mg/kg) | Tumor Size day 29 ([2]; 3 mg/kg, QD) | T/C ([2]; 3 mg/kg, QD) | Tumor Size day 29 ([2]; 6 mg/kg, QD) | T/C ([2]; 6 mg/kg, QD) | other results
CC(C)C[C@@H]1NCCN([C@@H](CC(C)C)C(=O)N2CCC3(C[C@@H]2C)OCC(CN2CCCC2)CO3)C1=O (stereo partly drawn) [Compound 258, (3S)-1-[(2S)-4-methyl-1-oxo-1-[(3s,6s,8S)-8-methyl-3-(pyrrolidin-1-ylmethyl)-1,5-dioxa-9-azaspiro[5.5]undec-an-9-yl]pentan-2-yl]-3-(2-methylpropyl)piper-azin-2-one (^≠), isomer Z] | n.s. | p < 0.0001 | p < 0.0001 | 3 | 2 | 3 | 428.0 ± 52.5 mm^3 | 36.0% | 186.9 ± 17.3 mm^3 | 15.7% | GI50 (BT-20): 15 nM; GI50 (DU145): 7 nM; GI50 (HL-60): 5 nM; GI50 (IM95m): 4 nM; GI50 (SK-BR-3): 12 nM; TWO-WAY ANOVA p (tumor size at the end of the study) vs. Enzalutamide ([1]; 10 mg/kg p.o. QD): p < 0.0001; TWO-WAY ANOVA p (tumor size at the end of the study) vs. Vehicle ([1]; 10 mg/kg p.o. QD): p < 0.0001; CR (complete regression) = number of mice [1, 6]: 4; PR (partial regression) = number of mice [1, 6]: 2; TFS (Tumor Free Survival) = number of complete regressions recorded up to Group Day End [1, 6]: 3; Tumor Size day 29 ([2]; 20 mg/kg, BIW): 763.4 ± 84.5 mm^3; T/C ([2]; 20 mg/kg, BIW): 64.2%; serum prostate-specific antigen (PSA) levels versus minimal relative expected PSA-levels [3]: clear reduction; tumor VEGF protein levels [4]: significantly reduced
CC(C)C[C@@H]1NCCN([C@@H](CC(C)C)C(=O)N2CCC3(C[C@@H]2C)OCC(CN2CCC2)CO3)C1=O (stereo partly drawn) [Compound 284, (3S)-1-[(2S)-4-methyl-1-oxo-1-[(3s,6s,8S)-3-(azetidin-1-ylmethyl)-8-methyl-1,5-dioxa-9-azaspiro[5.5]undec-an-9-yl]pentan-2-yl]-3-(2-methylpropyl)piper-azin-2-one (^≠), isomer Z] | n.s. | p < 0.0001 | p < 0.0001 | 3 | 2 | 3 | 709.0 ± 55.6 mm^3 | 59.6% | 592.6 ± 109.7 mm^3 | 49.8% | TWO-WAY ANOVA p (tumor size at the end of the study) vs. Compound 258 6 mg/kg [1, 5]: n.s.

Reference: patent US20250115571A1, “OXOPIPERAZINE DERIVATIVES” (Inthera Bioscience AG, priority 2017, published 2025)
